This data set can be described thus: UV absorption (UV/Vis spectrometer, standard USP 197U testing procedures). It is filed as physicochemical. The source says: UV absorption of glyceryl/acid or glycol/acid compounds and compositions containing the same can be determined by UV absorption assays that are generally known to those of ordinary skill in the art.

Turning to `O=C(OCC(O)CO)c1ccccc1O` (centres unmarked) [Glyceryl Mono-Salicylate], the “Molar Absorptivity (λ max 238 nm)” value (λ max 238 nm) is 12065.7. Under “λ max 307 nm”, the “Molar Absorptivity (λ max 307 nm)” value came to 6126.4.

Source of the values: US12285509B2, “Glyceryl and glycol acid compounds” (MARY KAY INC., priority 2006, dated 2025).
